Reference: patent US9193986B2, “Method for marking or immobilising a target structure” (Fraunhofer-Gesellschaft Zur Forderung Der Angewandten …, priority 2012, dated 2015)
Non-standard residues stand in square brackets, D forms with d. Residues, ends and D or L forms follow the SMILES beside them. No end group written: not given here. *: point of attachment. FITC = O=C1OC2(c3ccc(O)cc3Oc3cc(O)ccc32)c2ccc(NC(=S)*)cc21; Dopa = N[CH](Cc1ccc(O)c(O)c1)C(=O)O; X1 = O=C1NC2CSC(CCCCC(=O)*)C2N1

Assays:
Albumen lysozyme = Albumen lysozyme (Gallus gallus, UniProt P00698); assay: Laccase-mediated coupling of structures with DOPA residue to a protein, MS analysis; format: biochemical; settings: for formation of covalent adduct with lysozyme: equimolar and ten-fold excess, laccase, overnight, room temperature, pH 7.0; for conversion of lysozyme to the adduct: excess of the DOPA compound (ten-fold), FIGS. 5 and 8
Method: The following solutions were prepared in 10 mM phosphate buffer pH 7.0: • a) Albumen lysozyme 1 mg/ml, corresponding to 70 μM (solution 1) • b) Compound A (biotin-DOPA) 1 mg in 3 mL, corresponding to 700 μM (solution 2) and a 70 μM dilution (solution 3) • c) Compound B (biotin-RGD-DOPA) 1,2 mg in 2 ml, corresponding to 700 μM (solution 4) and a 70 μM dilution (solution 5) • d) Laccase (Trametes vers., ASA Spezialenzyme GmbH) 1 mg/ml corresponding to 20 u/ml (solution 6)
The reaction was started by mixing 500 μl lysozyme solution (Solution 1) with in each case 500 μl of solution 2 to solution 5 (i.e. in each case equimolar and ten-fold excess) and addition and mixing in 10 μl/0.2 u laccase (solution 6). Lysozyme with 500 μl 10 mM phosphate buffer pH 7.0 and laccase (solution 6) was used as control. The samples were incubated overnight at room temperature and the next day an aliquot was freed from low molecular weight constituents and salts using a desalting column (Micro Bio-Spin P6, BioRad) equilibrated with deionised waters.
The thereby prepared reaction product was analysed in an AB Sciex TOF/TOF™ 5800 system.

[1] = system: integrin αvβ6 expressing cells (HT1299, SVEC); assay: Marking of integrin αvβ6 expressing cells with DOPA/FITC polypeptide, with and without laccase, FACS fluorescence after washing; format: cell-based; settings: 5 μM polypeptide, without addition of laccase, washed three times with PBS, FIG. 1
Method: Marking of integrin αvβ6 expressing cells:
Cell type: Cell lines HT1299 (lung tumor), HUVEC, SVEC
Polypeptide for the marking: Ac-SPRGDLAVLGHK(FITC)GG-DOPA-G, SEQ ID NO: 1
Polypeptide solution: 4 mg/ml polypeptide in water corresponding to 2 mM
20 mg/ml laccase from Trameters versicolor, 20 U/mg, ASA Spezialenzyme GmbH, Wolfenbüttel
All FAC measurements were made on a Cytomics FC500 (Beckman Coulter).
(§1) The cells were in each case washed twice with PBS and then taken up in an amount of ca. 10^5 cells/ml in PBS. 950 μl portions of the solution were added to 1-ml-FACS-test tubes. Marked polypeptides with and without prior treatment with laccase, were then added according to the following Table 1.
(§2) For this, 40 μl NaAc solution, 105 μl water, 15 μl peptide solution and 120 μl laccase were added in a typical […] polypeptide batch. Samples without laccase contained the corresponding additional volume of water, samples with other polypeptide concentrations contained correspondingly more polypeptide solution (cf. Example 2). After an incubation time of 1 minute 50 μl were added in each case to the cell suspensions or placed in the FACS test tubes.
(§3) After an incubation time of at least 15 minutes the cells were washed three times with 2 ml PBS in the test tube and the fluorescence of the cells was then measured on a cell sorter. The total fluorescence of the cells was measured.

[2] = system: cell lines expressing αvβ6 integrin (HUVEC, SVEC, HT1299); assay: Dependence of the binding on the polypeptide concentration (laccase-activated marking, FACS); format: cell-based; settings: different concentrations, FIG. 2
Method: as §1, §2, §3
Corresponding to the above experimental procedure (Example 1) various cell lines, all of which express αvβ6 integrin, were marked with different polypeptide concentrations.

Row | Compound | formation of covalent adduct with lysozyme (Albumen lysozyme) | conversion of lysozyme to the adduct (Albumen lysozyme) | retention of the fluorescent polypeptide on the cells after washing [1] | binding to cells as a function of polypeptide concentration [2]
1 | N=C(N)NCCCC(NC(=O)CNC(=O)CCCCC1SCC2NC(=O)NC21)C(=O)NCC(=O)NC(CC(=O)O)C(=O)NC(Cc1ccc(O)c(O)c1)C(=O)NCC(=O)O (stereo not drawn) [Compound B, biotin-RGD-DOPA] (X1-GRGD[Dopa]G-OH; configuration not given here) | expected reaction products were found | a complete conversion was not achieved |  | 
2 | NC(=O)C(Cc1ccc(O)c(O)c1)NC(=O)CCCCC1SCC2NC(=O)NC21 (stereo not drawn) [Compound A] | expected reaction products were found | a complete conversion was not achieved |  | 
3 | Ac-SPRGDLAVLGHK(FITC)GG-DOPA-G (Ac-SPRGDLAVLGHK(FITC)GG[Dopa]G) [polypeptide] |  |  | can be washed again from the cells | bind depending on the concentration
